Results on 8 compounds are retold here after patent US20260317324A1, “BIFUNCTIONAL COMPOUNDS FOR DEGRADING BRAF VIA UBIQUITIN PROTEOSOME PATHWAY” (Nurix Therapeutics, Inc., priority 2023, published 2026).

Common to all, as to assay type: cell-based
One experiment concerns the target T1, BRAF G469A (Homo sapiens, UniProt P15056, G469A).
T1 construct: Horizon Discovery (HCT-116 BRAF−/− cells); host or cells: HCT-116 BRAF−/− cells, clone 34, lentiviral transduction
Description: BRAF HiBiT degradation assay, C-terminal HiBiT-tagged BRAF G469A overexpressed in HCT-116 BRAF−/− cells (clone 34), Nano-Glo HiBiT Lytic assay. Put shortly: (§1)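 HCT-116 BRAF−/− clones stably overexpressing C-terminal HiBiT-tagged mutant BRAF were seeded 24 h before treatment with an 11-point half-log series from 1 μM to 0.01 nM (0.2% DMSO final). Remaining protein was read by HiBiT lytic luminescence, with DMSO and wildtype-cell controls. DC50 was taken as the fitted concentration at 50% remaining protein; observed Dmax is reported relative to DMSO.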
(In general: HiBiT is a short tag that completes a luciferase, so light tracks the accessible tagged protein.)

A further experiment deals with T2, BRAF G466V (Homo sapiens, UniProt P15056, G466V).
T2 construct: Horizon Discovery (HCT-116 BRAF−/− cells); host or cells: HCT-116 BRAF−/− cells, clone 8, lentiviral transduction
T2 sequence (P15056 whole entry G466V): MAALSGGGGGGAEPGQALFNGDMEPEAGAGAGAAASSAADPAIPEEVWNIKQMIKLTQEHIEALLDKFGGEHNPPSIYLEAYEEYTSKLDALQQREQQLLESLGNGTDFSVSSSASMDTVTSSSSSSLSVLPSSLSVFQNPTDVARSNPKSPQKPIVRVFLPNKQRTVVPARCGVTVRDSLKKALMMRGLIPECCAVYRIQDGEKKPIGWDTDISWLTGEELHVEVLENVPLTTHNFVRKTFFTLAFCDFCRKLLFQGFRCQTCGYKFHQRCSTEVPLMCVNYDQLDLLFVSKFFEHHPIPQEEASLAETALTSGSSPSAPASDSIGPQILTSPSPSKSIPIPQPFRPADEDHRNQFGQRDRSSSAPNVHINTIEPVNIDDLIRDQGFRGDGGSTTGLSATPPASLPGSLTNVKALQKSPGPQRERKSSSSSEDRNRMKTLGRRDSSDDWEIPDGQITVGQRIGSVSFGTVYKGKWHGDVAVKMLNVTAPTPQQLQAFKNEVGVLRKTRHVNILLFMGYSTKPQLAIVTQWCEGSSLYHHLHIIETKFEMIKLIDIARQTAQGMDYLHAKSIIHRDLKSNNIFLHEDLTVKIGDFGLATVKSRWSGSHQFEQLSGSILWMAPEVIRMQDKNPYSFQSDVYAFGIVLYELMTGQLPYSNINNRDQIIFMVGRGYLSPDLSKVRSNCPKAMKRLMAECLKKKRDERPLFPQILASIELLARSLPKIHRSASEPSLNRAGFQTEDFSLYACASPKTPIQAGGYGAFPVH
Description: BRAF HiBiT degradation assay, C-terminal HiBiT-tagged BRAF G466V overexpressed in HCT-116 BRAF−/− cells (clone 8), Nano-Glo HiBiT Lytic assay. Put shortly:
as §1

Another experiment concerns the target T3, BRAF V600E (Homo sapiens, UniProt P15056, V600E).
T3 construct: endogenous C-terminal HiBiT fusion tag on BRAF V600E allele; endogenous in cells; host or cells: A375 clone 1F10 (CRISPR-Cas9 knock-in of the HiBiT tag; parental A375 from ATCC)
Description: BRAF HiBiT degradation assay, C-terminal HiBiT-tagged BRAF V600E A375 cells (clone 1F10), Nano-Glo HiBiT Lytic assay. The note with it: for Dmax: A-375. Put shortly:
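A375 cells (clone 1F10, endogenous C-terminal HiBiT on BRAF V600E) were seeded at 10,000 cells/well, grown 24 h, then dosed in duplicate with an 11-point series from 1 μM to 0.01 nM (0.2% DMSO). Nano-Glo HiBiT lytic luminescence was normalised to DMSO and wildtype-A375 background; DC50 was read at 50% protein remaining, alongside observed Dmax.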

A further experiment deals with T4, BRAF D594G (Homo sapiens, UniProt P15056, D594G).
T4 construct: Horizon Discovery (HCT-116 BRAF−/− cells); host or cells: HCT-116 BRAF−/− cells, clone 63, lentiviral transduction
T4 sequence (P15056 whole entry D594G): as the sequence (P15056 whole entry G466V) above, with V466G, D594G counted along it
Nature of the experiment: BRAF HiBiT degradation assay, C-terminal HiBiT-tagged BRAF D594G overexpressed in HCT-116 BRAF−/− cells (clone 63), Nano-Glo HiBiT Lytic assay. Put shortly: as §1

[1] abbreviates: BRAF G469A (Class 2), HCT-116 BRAF−/− cells, DC50 at 50% degradation.
The mark [2] stands for this setting: BRAF G469A (Class 2), HCT-116 BRAF−/− cells, observed Dmax relative to DMSO control.
[3] abbreviates: BRAF G466V (Class 3), HCT-116 BRAF−/− cells, DC50 at 50% degradation.
Setting [4] is: BRAF G466V (Class 3), HCT-116 BRAF−/− cells, observed Dmax relative to DMSO control.
[5] abbreviates: A375 (BRAF V600E, Class 1), DC50 at 50% degradation.
[6] abbreviates: A375 (BRAF V600E, Class 1), observed Dmax, % protein degraded relative to DMSO control.
The mark [7] stands for this setting: BRAF D594G (Class 3), HCT-116 BRAF−/− cells, DC50 at 50% degradation.
Where [8] appears, read: BRAF D594G (Class 3), HCT-116 BRAF−/− cells, observed Dmax relative to DMSO control.
[9] abbreviates: Class 2, BRAF G469A, DC50 at 50%: fitted conc. at Y=50.
Where [10] appears, read: HCT-116, Class 2, BRAF G469A, percentage protein degraded at maximal compound effect relative to DMSO.
Setting [11] is: BRAF G466V, DC50 at 50%: fitted conc. at Y=50.
The mark [12] stands for this setting: HCT-116, BRAF G466V, percentage protein degraded at maximal compound effect relative to DMSO.
[13] abbreviates: A375 (BRAF V600E), DC50 at 50%: fitted conc. at Y=50.
The mark [14] stands for this setting: A375 (BRAF V600E), percentage protein degraded at maximal compound effect relative to DMSO.
The mark [15] stands for this setting: BRAF D594G, DC50 at 50%: fitted conc. at Y=50.
Setting [16] is: HCT-116, BRAF D594G, percentage protein degraded at maximal compound effect relative to DMSO.

As usually defined, the DC50 is the concentration at which degradation of the target reaches its halfway point. In general, Dmax refers to the largest share of the target that was removed.

Molecules are shown by their SMILES.

T3 sequence (P15056 whole entry V600E, the tested form may be a part): as the sequence (P15056 whole entry G466V) above, with V466G, V600E counted along it
T1 sequence (P15056 whole entry G469A): as the sequence (P15056 whole entry G466V) above, with V466G, G469A counted along it

For the compound `O=C1CC[C@H](c2ccc(N3CCC(CN4CCN(c5ccc(-n6cc(-c7cc(Cl)cc(NS(=O)(=O)N8CC(F)C8)c7F)c(-c7ccncc7)n6)cc5)CC4)CC3)nc2)C(=O)N1` [Compound 331, N-{5-chloro-3-[1-(4-{4-[(1-{5-[(3R)-2,6-dioxopiperidin-3-yl]pyridin-2-yl}piperidin-4-yl)methyl]piperazin-1-yl}phenyl)-3-(pyridin-4-yl)-1H-pyrazol-4-yl]-2-fluorophenyl}-3-fluoroazetidine-1-sulfonamide], the DC50 on BRAF G469A (setting [1]), at BRAF G466V (setting [3]), on BRAF V600E (setting [5]) and on BRAF D594G (setting [7]) was below 10 nM each time. In addition, the maximal degradation (Dmax) on BRAF G469A (setting [2]) was above 70%; on BRAF G466V (setting [4]) it was above 70%; on BRAF V600E (setting [6]), above 70%; on BRAF D594G (setting [8]) it was 30 to 70%.

Turning to `C[C@@H]1CN(c2ccc(-n3cc(-c4cc(Cl)cc(NS(=O)(=O)N5CCCC5)c4F)c(-c4ccncc4)n3)cc2)CCN1CC1CCN(c2ccc([C@H]3CCC(=O)NC3=O)cc2)CC1` [Compound 316, N-[5-chloro-3-(1-{4-[(3R)-4-[(1-{4-[(3R)-2,6-dioxopiperidin-3-yl]phenyl}piperidin-4-yl)methyl]-3-methylpiperazin-1-yl]phenyl}-3-(pyridin-4-yl)-1H-pyrazol-4-yl)-2-fluorophenyl]pyrrolidine-1-sulfonamide], the 50% degradation concentration (DC50) at BRAF G469A (setting [1]) was 10 to 50 nM; at BRAF G466V (setting [3]), below 10 nM; at BRAF V600E (setting [5]), below 10 nM; at BRAF D594G (setting [7]), below 10 nM. Besides, the Dmax was above 70% at BRAF G469A (setting [2]), above 70% at BRAF G466V (setting [4]), above 70% on BRAF V600E (setting [6]) and 30 to 70% at BRAF D594G (setting [8]).

Turning to `CCCS(=O)(=O)Nc1cccc(-c2nc(C(C)(C)C)sc2-c2ccnc(Nc3ccc(N4CCN(C(=O)[C@@H]5CCN(c6ccc([C@H]7CCC(=O)NC7=O)cn6)C5)CC4)c(F)c3)n2)c1F` (racemic) [Compound 49, Rac-N-(3-(2-(tert-butyl)-5-(2-((4-(4-((R)-1-(5-((R)-2,6-dioxopiperidin-3-yl)pyridin-2-yl)pyrrolidine-3-carbonyl)piperazin-1-yl)-3-fluorophenyl)amino)pyrimidin-4-yl)thiazol-4-yl)-2-fluorophenyl)propane-1-sulfonamide], the DC50 is above 500 nM on BRAF G469A (setting [9]), above 500 nM on BRAF G466V (setting [11]), below 10 nM at BRAF V600E (setting [13]) and above 500 nM on BRAF D594G (setting [15]). Also, the Dmax on BRAF G469A (setting [10]) is 30 to 70%; at BRAF G466V (setting [12]), 30 to 70%; at BRAF V600E (setting [14]), above 70%; at BRAF D594G (setting [16]) it was 30 to 70%.

Turning to `CCCS(=O)(=O)Nc1cccc(-c2nc(C3CCN(C(=O)C4CCN(C(=O)C5CCN(c6ccc(C7CCC(=O)NC7=O)cn6)CC5)CC4)CC3)sc2-c2ccnc(N[C@H](C)CO)n2)c1F` (mixture of isomers) [Compound 180, N-[3-(2-{1-[1-(1-{5-[(3RS)-2,6-dioxopiperidin-3-yl]pyridin-2-yl}piperidine-4-carbonyl)piperidine-4-carbonyl]piperidin-4-yl}-5-(2-{[(2R)-1-hydroxypropan-2-yl]amino}pyrimidin-4-yl)-1,3-thiazol-4-yl)-2-fluorophenyl]propane-1-sulfonamide], the DC50 at BRAF G469A (setting [9]) is 10 to 50 nM; at BRAF G466V (setting [11]) it was below 10 nM; on BRAF V600E (setting [13]), below 10 nM; at BRAF D594G (setting [15]), below 10 nM. The Dmax on BRAF G469A (setting [10]) was 30 to 70%; on BRAF G466V (setting [12]) it was 30 to 70%; on BRAF V600E (setting [14]), above 70%; on BRAF D594G (setting [16]), 30 to 70%.

Take `CCCS(=O)(=O)Nc1cccc(-c2nc(C(C)(C)C)sc2-c2ccnc(Nc3cnn(CC4CCN(C(=O)[C@H]5CC[C@H](Oc6ccc(C7CCC(=O)NC7=O)cn6)CC5)CC4)c3)n2)c1F` (mixture of isomers) [Compound 117, N-{3-[2-tert-butyl-5-(2-{[1-({1-[(1r,4r)-4-({5-[(3RS)-2,6-dioxopiperidin-3-yl]pyridin-2-yl}oxy)cyclohexanecarbonyl]piperidin-4-yl}methyl)-1H-pyrazol-4-yl]amino}pyrimidin-4-yl)-1,3-thiazol-4-yl]-2-fluorophenyl}propane-1-sulfonamide]: the DC50 is above 500 nM at BRAF G469A (setting [9]), above 500 nM on BRAF G466V (setting [11]), below 10 nM at BRAF V600E (setting [13]) and above 500 nM on BRAF D594G (setting [15]). Also, the Dmax on BRAF G469A (setting [10]) is below 30%; at BRAF G466V (setting [12]), below 30%; on BRAF V600E (setting [14]) it was above 70%; on BRAF D594G (setting [16]), 30 to 70%.

Regarding `CCN(C)S(=O)(=O)Nc1cccc(-c2nc(C(C)(C)C)sc2-c2ccnc(Nc3ccc(N4CCN(CC5CCN(c6ccc([C@H]7CCC(=O)NC7=O)cn6)CC5)CC4)cn3)n2)c1F` [Compound 29, (3R)-3-{6-[4-({4-[6-({4-[2-tert-butyl-4-(3-{[ethyl(methyl)sulfamoyl]amino}-2-fluorophenyl)-1,3-thiazol-5-yl]pyrimidin-2-yl}amino)pyridin-3-yl]piperazin-1-yl}methyl)piperidin-1-yl]pyridin-3-yl}piperidine-2,6-dione], the DC50 at BRAF G469A (setting [9]) was 10 to 50 nM; on BRAF G466V (setting [11]) it was below 10 nM; on BRAF V600E (setting [13]), 10 to 50 nM; at BRAF D594G (setting [15]) it was below 10 nM. Moreover, the Dmax was 30 to 70% on BRAF G469A (setting [10]), above 70% on BRAF G466V (setting [12]), above 70% on BRAF V600E (setting [14]) and 30 to 70% on BRAF D594G (setting [16]).

For the compound `CCCS(=O)(=O)Nc1cccc(-c2nc(C3CCC4(CC3)CCN(C[C@H]3CC[C@H](Oc5ccc(C6CCC(=O)NC6=O)cn5)CC3)CC4)sc2-c2ccnc(N)n2)c1F` (mixture of isomers) [Compound 257, N-{3-[5-(2-aminopyrimidin-4-yl)-2-(3-{[(1r,4r)-4-({5-[(3RS)-2,6-dioxopiperidin-3-yl]pyridin-2-yl}oxy)cyclohexyl]methyl}-3-azaspiro[5.5]undecan-9-yl)-1,3-thiazol-4-yl]-2-fluorophenyl}propane-1-sulfonamide], the DC50 on BRAF G469A (setting [1]) was above 500 nM; at BRAF G466V (setting [3]), above 500 nM; on BRAF V600E (setting [5]), 10 to 50 nM; at BRAF D594G (setting [7]) it was above 500 nM. Moreover, the Dmax is below 30% at BRAF G469A (setting [2]), below 30% at BRAF G466V (setting [4]), above 70% at BRAF V600E (setting [6]) and below 30% at BRAF D594G (setting [8]).

As for `CCCS(=O)(=O)Nc1cccc(-c2nc(-c3ccc(C4CCN(CC5CCN(c6ccc(C7CCC(=O)NC7=O)cn6)CC5)CC4)cc3)sc2-c2ccnc(N)n2)c1F` (racemic) [Compound 208, Rac-N-{3-[5-(2-aminopyrimidin-4-yl)-2-(4-{1-[(1-{5-[(3R)-2,6-dioxopiperidin-3-yl]pyridin-2-yl}piperidin-4-yl)methyl]piperidin-4-yl}phenyl)-1,3-thiazol-4-yl]-2-fluorophenyl}propane-1-sulfonamide], the DC50 at BRAF G469A (setting [9]) is above 500 nM; at BRAF G466V (setting [11]), above 500 nM; on BRAF V600E (setting [13]) it was 10 to 50 nM; on BRAF D594G (setting [15]), above 500 nM. The Dmax was 30 to 70% at BRAF G469A (setting [10]), 30 to 70% on BRAF G466V (setting [12]), above 70% at BRAF V600E (setting [14]) and 30 to 70% on BRAF D594G (setting [16]).
